Where “and” joins values, the source holds several entries; their conditions need not be identical. Identical values can stand only once. Numbers after ± are expanded uncertainties.
Test: molar heat capacity at constant pressure
Settings: 101.33 kPa, Crystal 1, Small (less than 1 g) adiabatic calorimetry

O=P([O-])([O-])[O-].[Cs+].[Mg+2] [caesium-magnesium monophosphate]
Settings	molar heat capacity at constant pressure
292.8 K	121 ± 0.58 J/K/mol
294.9 K	121.5 ± 0.58 J/K/mol
297 K	121.9 ± 0.58 J/K/mol
298.15 K	122.1 ± 0.58 J/K/mol
298.84 K	122.3 ± 0.58 J/K/mol
300 K	122.6 ± 0.58 J/K/mol
300.7 K	122.7 ± 0.58 J/K/mol
303.3 K	123.3 ± 0.58 J/K/mol
305.9 K	123.9 ± 0.58 J/K/mol
308 K	124.4 ± 0.58 J/K/mol
310 K	124.8 ± 0.58 J/K/mol
310.1 K	124.8 ± 0.58 J/K/mol
312.4 K	125.4 ± 0.58 J/K/mol
314.7 K	125.9 ± 0.58 J/K/mol
316.4 K	126.2 ± 0.58 J/K/mol
318 K	126.5 ± 0.58 J/K/mol
320 K	127 ± 0.58 J/K/mol
321.1 K	127.2 ± 0.58 J/K/mol
324.2 K	128 ± 0.58 J/K/mol
325.3 K	128.2 ± 0.58 J/K/mol
326.4 K	128.5 ± 0.58 J/K/mol
329.66 K	129.1 ± 0.58 J/K/mol
330 K	129.2 ± 0.58 J/K/mol
330.5 K	128.9 ± 0.58 J/K/mol
332.91 K	129.7 ± 0.58 J/K/mol
333.99 K	129.9 ± 0.58 J/K/mol
334.4 K	129.7 ± 0.58 J/K/mol
335.08 K	130.1 ± 0.58 J/K/mol
338.2 K	130.6 ± 0.58 J/K/mol
338.3 K	130.5 ± 0.58 J/K/mol
340 K	131 ± 0.58 J/K/mol
341.8 K	131.2 ± 0.58 J/K/mol
342.2 K	131.4 ± 0.58 J/K/mol
343.4 K	131.5 ± 0.58 J/K/mol
345.83 K	132 ± 0.58 J/K/mol
346.1 K	132.2 ± 0.58 J/K/mol
348.25 K	132.5 ± 0.58 J/K/mol
350 K	133 ± 0.58 J/K/mol and 132.7 ± 0.58 J/K/mol
350.05 K	132.7 ± 0.58 J/K/mol
351.85 K	133 ± 0.58 J/K/mol
353.9 K	133 ± 0.58 J/K/mol
357.8 K	133.9 ± 0.58 J/K/mol
360 K	135 ± 0.83 J/K/mol
361.7 K	134.7 ± 0.58 J/K/mol
365.5 K	135.5 ± 0.58 J/K/mol
369.2 K	136.4 ± 0.58 J/K/mol
370 K	136 ± 0.83 J/K/mol
372.9 K	136.4 ± 0.58 J/K/mol
376.6 K	137.2 ± 0.58 J/K/mol
380 K	138 ± 0.83 J/K/mol
380.2 K	138 ± 0.58 J/K/mol
383.7 K	138 ± 0.58 J/K/mol
387.2 K	138.9 ± 0.58 J/K/mol
390 K	140 ± 0.83 J/K/mol
390.7 K	139.7 ± 0.58 J/K/mol
394.2 K	140.5 ± 0.58 J/K/mol
397.7 K	140.5 ± 0.58 J/K/mol
400 K	141 ± 0.83 J/K/mol
401.3 K	141.3 ± 0.58 J/K/mol
404.8 K	141.3 ± 0.58 J/K/mol
408.5 K	142.2 ± 0.58 J/K/mol
410 K	142 ± 0.83 J/K/mol
412.1 K	143 ± 0.58 J/K/mol
415.8 K	143 ± 0.58 J/K/mol
419.6 K	143.8 ± 0.58 J/K/mol
420 K	144 ± 0.83 J/K/mol
423.3 K	144.7 ± 0.67 J/K/mol
427 K	145.5 ± 0.67 J/K/mol
430 K	146 ± 0.83 J/K/mol
430.6 K	145.5 ± 0.67 J/K/mol
434.3 K	146.3 ± 0.67 J/K/mol
437.9 K	146.3 ± 0.67 J/K/mol
440 K	147 ± 0.83 J/K/mol
441.6 K	147.2 ± 0.67 J/K/mol
445.2 K	148 ± 0.67 J/K/mol
448.8 K	148 ± 0.67 J/K/mol
450 K	148 ± 0.83 J/K/mol
452.5 K	148.8 ± 0.67 J/K/mol
456.1 K	148.8 ± 0.67 J/K/mol
459.8 K	149.7 ± 0.67 J/K/mol
460 K	150 ± 0.83 J/K/mol
463.4 K	150.5 ± 0.67 J/K/mol
467.1 K	150.5 ± 0.67 J/K/mol
470 K	151 ± 0.83 J/K/mol
470.7 K	151.3 ± 0.67 J/K/mol
474.4 K	151.3 ± 0.67 J/K/mol
478.1 K	152.2 ± 0.67 J/K/mol
480 K	152 ± 0.83 J/K/mol
481.8 K	152.2 ± 0.67 J/K/mol
485.4 K	153 ± 0.67 J/K/mol
489.1 K	153.8 ± 0.67 J/K/mol
490 K	154 ± 0.83 J/K/mol
492.7 K	153.8 ± 0.67 J/K/mol
496.4 K	154.6 ± 0.67 J/K/mol
500 K	154.6 ± 0.67 J/K/mol and 155 ± 0.83 J/K/mol
503.7 K	155.5 ± 0.67 J/K/mol
507.3 K	155.5 ± 0.67 J/K/mol
510 K	156 ± 0.83 J/K/mol
511 K	156.3 ± 0.67 J/K/mol
514.6 K	156.3 ± 0.67 J/K/mol
518.3 K	157.1 ± 0.67 J/K/mol
520 K	157 ± 0.83 J/K/mol
521.8 K	157.1 ± 0.67 J/K/mol
525.4 K	158 ± 0.67 J/K/mol
529 K	158 ± 0.67 J/K/mol
530 K	159 ± 0.83 J/K/mol
532.6 K	158.8 ± 0.67 J/K/mol
536.1 K	158.8 ± 0.67 J/K/mol
539.8 K	159.6 ± 0.67 J/K/mol
540 K	160 ± 0.83 J/K/mol
543.3 K	159.6 ± 0.67 J/K/mol
546.9 K	160.5 ± 0.67 J/K/mol
550 K	160 ± 0.83 J/K/mol
550.5 K	160.5 ± 0.67 J/K/mol
554.1 K	161.3 ± 0.67 J/K/mol
557.7 K	161.3 ± 0.67 J/K/mol
560 K	162 ± 0.83 J/K/mol
561.4 K	162.1 ± 0.67 J/K/mol
565 K	162.1 ± 0.67 J/K/mol
568.7 K	163 ± 0.67 J/K/mol
570 K	163 ± 0.83 J/K/mol
572.4 K	163 ± 0.67 J/K/mol
576.1 K	163.8 ± 0.67 J/K/mol
579.8 K	163.8 ± 0.67 J/K/mol
580 K	164 ± 0.83 J/K/mol
583.4 K	164.6 ± 0.67 J/K/mol
587.1 K	164.6 ± 0.67 J/K/mol
590 K	165 ± 0.83 J/K/mol
590.7 K	165.5 ± 0.67 J/K/mol
594.3 K	165.5 ± 0.67 J/K/mol
597.9 K	166.3 ± 0.67 J/K/mol
600 K	166 ± 0.83 J/K/mol
603.4 K	166.3 ± 0.67 J/K/mol
607 K	167.1 ± 0.67 J/K/mol
610 K	167 ± 0.83 J/K/mol
610.6 K	167.1 ± 0.67 J/K/mol
614.2 K	168 ± 0.67 J/K/mol
617.7 K	168 ± 0.67 J/K/mol
620 K	168 ± 0.83 J/K/mol
621.4 K	168 ± 0.67 J/K/mol
625 K	168.8 ± 0.67 J/K/mol
628.6 K	168.8 ± 0.67 J/K/mol
630 K	169 ± 0.83 J/K/mol
632.3 K	169.6 ± 0.75 J/K/mol
636 K	169.6 ± 0.75 J/K/mol
639.7 K	170.4 ± 0.75 J/K/mol
640 K	170 ± 0.83 J/K/mol
643.3 K	170.4 ± 0.75 J/K/mol
648.9 K	171.3 ± 0.75 J/K/mol
650 K	171 ± 0.83 J/K/mol

— the NIST ThermoML archive (doi:10.1016/j.jct.2007.11.001)
